Experiments:
Format in all cases: cell-based
NFκB = NFκB reporter assay (NanoLuciferase) in A549 cells, TNFα stimulation; settings: Homo sapiens, 4 ng/ml TNFα, 6 hours
Text: Compounds of the present invention have been tested for their capacity to inhibit NFκB.
The NFκB reporter construct was made by cloning 5 NFκB responsive elements upstream of a NanoLuciferase reporter gene flanked by AAVS1 genomic sequences.
NFκB Responsive element fused with NanoLuciferase and SV40 late Poly(A) signal was amplified from pNL3.2-NFκB-Nluc (Promega) using NFKB-NLUC-F and NFKB-NLUC-R primers and inserted by Infusion (TaKaRa) in AAVS1 SA-2A-puro-pA donor plasmid (Hockemeyer et al, Nat Biotechnol. 2009, 27, 851-7) digested by Sal1. pCRISPR AAVS1-T2 expressing a guide RNA (gRNA) to target human AAVS1 (T2 target sequence) was constructed by inserting AAVS1-T2A hybridized primers in pLentiCRISPR v2-blast (Sanjana et al, Nat Methods. 2014, 11, 783-4) digested by Bsmb1.
A549 cells were transfected by the plasmids and puromycine selected for 5 days (1 μg mL-1). Then clones were obtained by limiting dilution and selected to maximize TNFα dependent NFkB-NanoLuciferase induction.
The reporter cells were seeded on a 96-well plate for overnight with DMEM including 10% FBS. Test compounds were added at varying concentrations. The cells then were treated with 4 ng/ml TNFα (Peprotech, ref E251) in DMEM+10% FBS. NanoGlo luciferase assay (Promega) was carried out 6 hours later. Luminescence was measured using a Spark 20M spectrofluorimeter (Tecan). Values were normalized to the luminescence measured in untreated cells.

MAXF 401 = assay: Cytotoxicity, propidium iodide based monolayer assay, MAXF 401; settings: Homo sapiens, MAXF401, 96 h; MAXF 401 (breast adeno carcinoma), four days of treatment, T/C=50%; read-out: Absolute IC50
Protocol: (§1) The cytotoxicity was tested for compounds of the invention on five different cell-lines, namely LXFL 1121, MAXF 401, MMXF L-636, PRXF PC-3M and UXF 1138 which are respectively lung large cell carcinoma, breast adeno carcinoma, multiple myeloma, prostate adeno carcinoma and uterine sarcoma.
(§2) A working stock solution of the test compounds was prepared in DMSO at a concentration of 33 mM or 8.25 mM, and small aliquots were stored at −20° C. On each day of an experiment, a frozen aliquot of the working stock solution was thawed and stored at room temperature prior to and during treatment.
(§3) All liquid handling steps were performed using the Tecan Freedom EVO 200 platform. First, serial 2-fold dilutions of the 33 mM DMSO working stock solution were done in DMSO. […]
(§4) A modified propidium iodide (PI) based monolayer assay was used to assess the anti-cancer activity of the compounds. Briefly, cells were harvested from exponential phase cultures, counted and plated in 96 well flat-bottom microtiter plates at a cell density of 4,000 to 40,000 cells/well dependent on the cell line's growth rate. […] After an incubation period of 1-2 hours at room temperature, fluorescence (FU) was measured using the Enspire Multimode Plate Reader (excitation λ=530 nm, emission λ=620 nm) to quantify the amount of attached viable cells. […]

MMXF L-363 = assay: Cytotoxicity, propidium iodide based monolayer assay, MMXF L-363; settings: Homo sapiens, 96 h; MMXF L-363 (multiple myeloma), four days of treatment, T/C=50%; read-out: Absolute IC50
Protocol: as §1, §2, §3, §4

UXF 1138 = assay: Cytotoxicity, propidium iodide based monolayer assay, UXF 1138; settings: 96 h; UXF 1138 (uterine sarcoma), four days of treatment, T/C=50%; read-out: Absolute IC50
Protocol: as §1, §2, §3, §4

Compound: O=C(Nc1scc(C2CCc3ccccc3C2)c1C(=O)O)c1ccccc1 (stereo not shown) [#16]
- EC50 (NFκB): 80 nM
- IC50 (MAXF 401): 507 nM
- IC50 (MMXF L-363): 357 nM
- IC50 (UXF 1138): 324 nM
